Entries after “also recorded” stand apart in the source; their conditions may differ.
Legend:
[1] = test system: LS patient-derived skin fibroblasts; assay: Anti-BSO-induced cell death activity assay; conditions: Homo sapiens, Skin fibroblast, 48 h, read-out: Anti-BSO-induced cell death effect EC50, co-added with BSO at a concentration giving 10%-20% cell viability; viable cells 48 h after addition
dopamine D2 receptors = target: T1, dopamine D2 receptors (Homo sapiens, UniProt P14416); assay: Dopamine D2 receptor agonist assay (GeneBLAzer D2-Gqo5-NFAT-bla CHO-K1 reporter); assay type: cell-based; conditions: CHO cells stably expressing dopamine D2 receptors; NA: no activity; read-out: Dopamine D2 receptor agonist (DA) activity EC50
T1 construct: host or cells: CHO-K1 (GeneBLAzer D2-Gqo5-NFAT-bla)
T1 sequence (P14416 whole entry): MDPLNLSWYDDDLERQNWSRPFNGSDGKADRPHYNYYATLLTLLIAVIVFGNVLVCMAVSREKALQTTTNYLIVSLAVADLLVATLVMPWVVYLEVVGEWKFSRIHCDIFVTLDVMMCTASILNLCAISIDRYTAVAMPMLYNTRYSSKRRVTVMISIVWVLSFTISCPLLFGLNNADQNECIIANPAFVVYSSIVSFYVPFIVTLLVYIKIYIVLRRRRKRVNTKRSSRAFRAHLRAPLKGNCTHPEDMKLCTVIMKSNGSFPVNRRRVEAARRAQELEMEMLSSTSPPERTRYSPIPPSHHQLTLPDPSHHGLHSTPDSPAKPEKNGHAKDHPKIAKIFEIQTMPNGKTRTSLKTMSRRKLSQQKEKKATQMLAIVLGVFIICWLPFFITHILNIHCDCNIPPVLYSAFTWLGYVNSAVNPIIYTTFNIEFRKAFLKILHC
Experimental: CHO-K1 cells were spread in 384-well plates at 10,000 cells/32 μL/well, taking care not to touch the bottom of the wells. Cell-free-wells were injected with the same volume (32 μL) of assay medium. The plates were then incubated in a CO2 incubator for 16–20 h. […] The diluted solution (8 μL/well) was added to 384-well plates seeded with CHO-K1 cells and incubated in a CO2 incubator for 5 h. […] The addition of the drug induces D2 receptor activation, which activates signaling pathways and transcription factors, resulting in the expression of a reporter gene (β-lactamase) and cleavage of the fluorescence resonance energy transfer (FRET) substrate, causing the fluorescence to change from green to blue.

[2] = test system: LS patient-derived skin fibroblasts; assay: Anti-RSL3-induced cell death activity assay; assay type: cell-based; conditions: Homo sapiens, Skin fibroblast, read-out: Anti-RSL3-induced cell death effect EC50
Experimental: RSL3 is a glutathione peroxidase 4 (GPx4) inhibitor that specifically induces ferroptosis. Ferroptosis is an iron-dependent non-apoptotic type of cell death caused by lipid peroxidation.
After 24 h of incubation, the reagents were added to the RSL3 (−) derivative (−) and RSL3 ( +) derivative ( +) groups. […] The final concentration of RSL3 was 50–200 nM that would cause approximately 80–90% cell death after 24 h of incubation. The percentage of viable cells was measured 24 h after addition of each reagent.

[3] = test system: LS patient-derived skin fibroblasts; assay: Mitochondrial ATP production capacity (extracellular flux analyzer, OCR); assay type: cell-based, human; conditions: 100 nM compound
From the text: The extracellular flux analyzer Seahorse XFe96 (Agilent Technologies, Santa Clara, CA, USA) was used to evaluate the mitochondrial function. The extracellular flux analyzer measures the oxygen consumption rate (OCR) in the mitochondria during ATP synthesis and can also evaluate the intracellular mitochondrial function. The endpoints were the basal OCR, ATP-linked OCR, maximal OCR, and spare capacity, which are key indicators of the mitochondrial function in assays using living cells. Each indicator was calculated by continuously adding ATP synthase inhibitors (oligomycin, rotenone and antimycin A) and deconjugating agents (carbonyl cyanide-p-trifluoromethoxyphenylhydrazone [FCCP]) during the measurement (Fig. 6). […] The OCR was measured over time by adding oligomycin (2 μM concentration) 20 min after drug addition, FCCP (2 μM concentration) 50 min later, and rotenone and antimycin A (0.5 μM concentration) 80 min later.

GDF-15 = GDF-15 levels in the cell supernatant (ELISA); assay type: cell-based, human; conditions: 24 h after co-administration with RSL3, compared to RSL3-only
Experimental: GDF-15 is a biomarker that is elevated in the blood of patients with mitochondrial diseases and is used for the diagnosis of mitochondrial diseases and determination of therapeutic efficacy[26],[36]. […] As previously reported, GDF-15 levels were measured by an enzyme-linked immuno sorbent assay (ELISA) using the Quantikin Human GDF-15 ELISA Kit (R&D Systems, Minneapolis, MN, USA). Samples were obtained from anti-RSL3-induced cell death assays with candidate compounds (D31, D55, and D40), and cell supernatants 24 h after reagent addition were used for the assay. Measured values were calculated with reference to internal standards and compared to GDF-15 values.

Row | Structure (SMILES) | EC50 [1] | other results
1 | CCCN1CCc2cccc3c2[C@H]1Cc1ccc(O)c(O)c1-3 [D3, (9R)-10-propyl-10-azatetracyclo[7.7.1.0²,⁷.0¹³,¹⁷]heptadeca-1(17),2,4,6,13,15-hexaene-3,4-diol] | 186 nM | –
2 | Oc1ccc2c(c1O)-c1cccc3c1[C@@H](C2)NCC3 [D4, (9R)-10-azatetracyclo[7.7.1.0²,⁷.0¹³,¹⁷]heptadeca-1(17),2,4,6,13,15-hexaene-3,4-diol] | 1990 nM | EC50 (dopamine D2 receptors): 582 nM
3 | CCCN1CCc2cccc3c2[C@H]1Cc1ccc2c(c1-3)OCO2 [D5, (12R)-13-propyl-4,6-dioxa-13-azapentacyclo[10.7.1.0²,¹⁰.0³,⁷.0¹⁶,²⁰]icosa-1(20),2,7,9,16,18-hexaene] | 2110 nM | –
4 | COc1ccc2c(c1OC)C[C@@H]1c3c(cc4c(c3-2)OCO4)CCN1C [D8, (12R)-15,16-dimethoxy-11-methyl-3,5-dioxa-11-azapentacyclo[10.7.1.0²,⁶.0⁸,²⁰.0¹⁴,¹⁹]icosa-1(20),2(6),7,14,16,18-hexaene] | 180 nM | –
5 | COc1cccc2c1C[C@@H]1c3c(cc4c(c3-2)OCO4)CCN1C [D9, (12R)-15-methoxy-11-methyl-3,5-dioxa-11-azapentacyclo[10.7.1.0²,⁶.0⁸,²⁰.0¹⁴,¹⁹]icosa-1(20),2(6),7,14,16,18-hexaene] | 393 nM | –
6 | COc1cc(O)c2c(c1)C[C@@H]1c3c(cc4c(c3-2)OCO4)CCN1C [D10, (12R)-16-methoxy-11-methyl-3,5-dioxa-11-azapentacyclo[10.7.1.0²,⁶.0⁸,²⁰.0¹⁴,¹⁹]icosa-1(20),2(6),7,14,16,18-hexaen-18-ol] | 750 nM | –
7 | COc1cc2c(cc1OC)-c1c(OC)c(OC)cc3c1[C@@H](C2)N(C)CC3 [D11, (9R)-4,5,15,16-tetramethoxy-10-methyl-10-azatetracyclo[7.7.1.0²,⁷.0¹³,¹⁷]heptadeca-1(17),2,4,6,13,15-hexaene] | 6920 nM | –
8 | CN1CCc2cccc3c2[C@H]1Cc1ccc(O)c(O)c1-3 [D15, (9R)-10-methyl-10-azatetracyclo[7.7.1.0²,⁷.0¹³,¹⁷]heptadeca-1(17),2,4,6,13,15-hexaene-3,4-diol, reference compound] | 613 nM | –
9 | CN1CCc2cc3c(c4c2[C@@H]1Cc1ccccc1-4)OCO3 [D18, (12S)-11-methyl-3,5-dioxa-11-azapentacyclo[10.7.1.0²,⁶.0⁸,²⁰.0¹⁴,¹⁹]icosa-1(20),2(6),7,14,16,18-hexaene] | 492 nM | –
10 | COc1cc2c(cc1O)C[C@@H]1c3c(cc(O)c(OC)c3-2)CCN1C [D19, (9R)-4,16-dimethoxy-10-methyl-10-azatetracyclo[7.7.1.0²,⁷.0¹³,¹⁷]heptadeca-1(17),2,4,6,13,15-hexaene-5,15-diol] | 5180 nM | –
11 | COc1cc2c(cc1OC)-c1c3c(c(OC)c4c1C(C2)N(C)CC4)OCO3 (centres unmarked) [D20, 7,16,17-trimethoxy-11-methyl-3,5-dioxa-11-azapentacyclo[10.7.1.0²,⁶.0⁸,²⁰.0¹⁴,¹⁹]icosa-1(20),2(6),7,14,16,18-hexaene] | 798 nM | –
12 | CN1CCc2cccc3c2[C@@H]1Cc1ccc(O)c(O)c1-3 [D24, (9S)-10-methyl-10-azatetracyclo[7.7.1.0²,⁷.0¹³,¹⁷]heptadeca-1(17),2(7),3,5,13,15-hexaene-3,4-diol] | 1030 nM | –
13 | COc1cc2c(cc1O)CC1NCCc3cc(OC)c(OC)c-2c31 (centres unmarked) [D25, 4,15,16-trimethoxy-10-azatetracyclo[7.7.1.0²,⁷.0¹³,¹⁷]heptadeca-1(17),2(7),3,5,13,15-hexaen-5-ol] | 2050 nM | –
14 | COc1cc2c3c(c1O)-c1c(ccc(OC)c1OC)C[C@H]3N(C)CC2 [D26, (9R)-3,4,15-trimethoxy-10-methyl-10-azatetracyclo[7.7.1.0²,⁷.0¹³,¹⁷]heptadeca-1(17),2,4,6,13,15-hexaen-16-ol] | 289 nM | –
15 | CN1CCc2cccc3c2[C@H]1Cc1ccc(OCCCN)c(O)c1-3 [D27, (9R)-4-(3-aminopropoxy)-10-methyl-10-azatetracyclo[7.7.1.0²,⁷.0¹³,¹⁷]heptadeca-1(17),2,4,6,13,15-hexaen-3-ol] | 221 nM | EC50 (dopamine D2 receptors): 254 nM
16 | CCCCOc1ccc2c(c1O)-c1cccc3c1[C@@H](C2)N(C)CC3 [D36, (9R)-4-butoxy-10-methyl-10-azatetracyclo[7.7.1.0²,⁷.0¹³,¹⁷]heptadeca-1(17),2,4,6,13,15-hexaen-3-ol] | 123 nM | –
17 | CN1CCc2cccc3c2[C@H]1Cc1ccc(OCCCc2ccccc2)c(O)c1-3 [D37, (9R)-10-methyl-4-(3-phenylpropoxy)-10-azatetracyclo[7.7.1.0²,⁷.0¹³,¹⁷]heptadeca-1(17),2,4,6,13,15-hexaen-3-ol] | 186 nM | –
18 | CN1CCc2cccc3c2[C@H]1Cc1ccc(OCCCO)c(O)c1-3 [D38, (9R)-4-(3-hydroxypropoxy)-10-methyl-10-azatetracyclo[7.7.1.0²,⁷.0¹³,¹⁷]heptadeca-1(17),2,4,6,13,15-hexaen-3-ol] | 165 nM | EC50 (dopamine D2 receptors): 3650 nM
19 | CN1CCc2cccc3c2[C@H]1Cc1ccc(OCCCCl)c(O)c1-3 [D39, (9R)-4-(3-chloropropoxy)-10-methyl-10-azatetracyclo[7.7.1.0²,⁷.0¹³,¹⁷]heptadeca-1(17),2,4,6,13,15-hexaen-3-ol] | 259 nM | –
20 | CCCCCCCCCOc1ccc2c(c1O)-c1cccc3c1[C@@H](C2)N(C)CC3 [D41, (9R)-10-methyl-4-(nonyloxy)-10-azatetracyclo[7.7.1.0²,⁷.0¹³,¹⁷]heptadeca-1(17),2,4,6,13,15-hexaen-3-ol] | 648 nM | –
21 | CN1CCc2cccc3c2[C@H]1Cc1ccc(OCCCC(F)(F)F)c(O)c1-3 [D42, (9R)-10-methyl-4-(4,4,4-trifluorobutoxy)-10-azatetracyclo[7.7.1.0²,⁷.0¹³,¹⁷]heptadeca-1(17),2,4,6,13,15-hexaen-3-ol] | 167 nM | –
22 | CN1CCc2cccc3c2[C@H]1Cc1ccc(-c2ccccc2)c(O)c1-3 [D45, (9R)-10-methyl-4-phenyl-10-azatetracyclo[7.7.1.0²,⁷.0¹³,¹⁷]heptadeca-1(17),2,4,6,13,15-hexaen-3-ol] | < 100 nM | EC50 (dopamine D2 receptors): 2630 nM; EC50 ([2]; co-added with RSL3 at a concentration giving 10%-20% cell viability, viable cells 24 h after addition): 745 nM
23 | CN1CCc2cccc3c2[C@H]1Cc1ccc(OCc2ccccc2)c(O)c1-3 [D47, (9R)-4-(benzyloxy)-10-methyl-10-azatetracyclo[7.7.1.0²,⁷.0¹³,¹⁷]heptadeca-1(17),2,4,6,13,15-hexaen-3-ol] | 124 nM | –
24 | CN1CCc2cccc3c2[C@H]1Cc1ccc(OCCc2ccccc2)c(O)c1-3 [D48, (9R)-10-methyl-4-(2-phenylethoxy)-10-azatetracyclo[7.7.1.0²,⁷.0¹³,¹⁷]heptadeca-1(17),2,4,6,13,15-hexaen-3-ol] | 128 nM | –
25 | CN1CCc2cccc3c2[C@H]1Cc1ccc(OCCCCc2ccccc2)c(O)c1-3 [D50, (9R)-10-methyl-4-(4-phenylbutoxy)-10-azatetracyclo[7.7.1.0²,⁷.0¹³,¹⁷]heptadeca-1(17),2,4,6,13,15-hexaen-3-ol] | 207 nM | –
26 | CN1CCc2cccc3c2[C@H]1Cc1ccc(OCCC(c2ccccc2)c2ccccc2)c(O)c1-3 [D54, (9R)-4-(3,3-diphenylpropoxy)-10-methyl-10-azatetracyclo[7.7.1.0²,⁷.0¹³,¹⁷]heptadeca-1(17),2,4,6,13,15-hexaen-3-ol] | 497 nM | –
27 | CCOc1ccc2c(c1O)-c1cccc3c1[C@@H](C2)N(C)CC3 [D55, (9R)-4-ethoxy-10-methyl-10-azatetracyclo[7.7.1.0²,⁷.0¹³,¹⁷]heptadeca-1(17),2,4,6,13,15-hexaen-3-ol] | – | Enhancement of mitochondrial ATP production [3]: showed any ability to enhance mitochondrial ATP production; also recorded: No significant enhancement; GDF-15 elevation in cell supernatant (GDF-15): suppressed GDF-15 elevation; also recorded: significant decrease; EC50 ([2]; 24 h): 21 nM
28 | CCOC(=O)c1ccc(NC2CCCCC2)c(N)c1 [ferrostatin-1, reference compound] | – | GDF-15 elevation in cell supernatant (GDF-15): significant decrease
